Test results: patent US20180042867A1, “METHODS OF TREATING CANCER” (Mitchell Woods Pharmaceuticals, Inc., priority 2015, published 2018)

Experiments:
[1] = system: PANC-1 cells; conditions: cited from earlier work
[2] = system: PANC-1; test: Proliferation in pancreatic cancer (PancCA) cell lines; type: cell-based, human; conditions: including PANC-1
[3] = system: PANC-1 cells; test: Untargeted metabolomics (1D 1H NMR) of intracellular metabolome; type: cell-based, human; conditions: PANC-1, MNF 1 μM
Method: (§1) The cells were seeded on 100×20 mm tissue culture plates and maintained at 37° C. under humidified 5% CO2 in air until they reached >70% confluence. The original media was replaced with media containing 0.5 μM or 1 μM MNF and the plates were incubated for an additional 1 hour, unless otherwise indicated. After completion of incubations, the media was aspirated and the cells were washed twice with 10 ml of phosphate buffer saline (pH 7.4) (PBS). The cells were then collected in 10 ml PBS by scrapping and sedimented by centrifugation (1000 rpm, 5 min), and the supernatant discarded. The cell pellets were stored at −80° C. until analyzed.
The cell pellet was re-suspended in 1 ml of 80% methanol (cryogenically cold) and incubated at −80° C. for 15 minutes. This suspension was then centrifuged at 13,000×g for 10 minutes at 4° C. The supernatant was collected in an eppendorf tube and the pellet was suspended in 0.25 ml of water. The suspension was vortexed mixed for 1 minute and centrifuged at 13,000×g for 10 minutes at 4° C. The supernatant was collected and mixed with the supernatant collected in the previously step and stream dried under nitrogen. The sample was stored at −80° C. until analyzed.
Sample Preparation and NMR Analysis—Non-Targeted Metabolomics.
The Cell pellet was re-suspended in 1 ml of 80% methanol (cryogenically cold) and incubated at −80° C. for 15 minutes. This suspension was then centrifuged at 13,000×g for 10 minutes at 4° C. The supernatant was collected in an eppendorf tube and the pellet was suspended in 0.25 ml of water. The suspension was vortexed mixed for 1 minute and centrifuged at 13,000×g for 10 minutes at 4° C. The supernatant was collected and mixed with the supernatant collected in the previously step and stream dried under nitrogen. The sample was stored at −80° C. until analyzed. The samples were prepared for NMR experimentation by dissolving in 0.6 ml of 50 mM phosphate buffer (pH 7.2) in 99.8% D2O with 50 μM 3-(tetramethysilane)propionic acid-2,2,3,3-d4 (TMSP). NMR spectra were recorded on a Bruker Avance III-HD 700 MHz spectrometer equipped with a QCI-P cryoprobe and a SampleJet automated sample changer. 1D ^1H spectra were collected using excitation sculpting to remove the solvent signal. A total of 16 k data points with a spectral width of 5482.5 Hz, 8 dummy scans, and 256 scans were used to obtain each spectrum. The data was processed completely in MVAPACK.
An untargeted metabolomics approach using one-dimensional proton nuclear magnetic resonance (1D ^1H NMR) was used to examine the effect of MNF incubation (1 μM, 1 hour) on the intracellular metabolome of PANC-1 cells.

[4] = system: MDA-MB-231 breast cancer cells; test: Intracellular lactate, targeted metabolomics (LC/MS); type: cell-based, human; conditions: MDA-MB-231, MNF (1 µM), 3 hours
Method: as §1, with “analyzed. […]” for “analyzed.”
The cells pellets were suspended in 20 μL water, 10 μL of 0.1 mM p-aminohippuric acid as an internal standard was added and the resulting mixture vortex mixed for 1 minute. […] The supernatant was collected and analysed using a system composed of an Agilent Technologies 1100 LC/MSD equipped with a G1322A degasser, G1312A quaternary pump, G1367A autosampler, G1316A column thermostat and G1946D mass spectrometer supplied with electrospray ionization (ESI). […] The compound of interest were monitored in the positive-ion mode for SIM at m/z 162.1 (carnitine), m/z 90.1 (lactate) and m/z 105.1 (3-hydroxybutyrate). The internal standard was monitored at m/z 195.1 (p-aminohippuric acid). […]

[5] = system: MCF-7 cells; test: Expression of ABC exporters in MCF-7 cells; type: cell-based, human; conditions: incubation with MNF
[6] = system: MDA-MD-231 cells; test: Expression of ABC exporters in MDA-MB-231 cells; type: cell-based, human; conditions: incubation with MNF
Excerpt: See, FIG. 6A. In MDA-MD-231 cells, MNF reduced the expression of P-gp and BCRP while the signal associated with MRP-1 was too faint to detect in the untreated controls as shown in FIG. 6B. As observed in the expression of cyclin D1, the expression of ABC transporters has been associated with EGFR expression and activity and nuclear translocation of PKM2. Thus, the observed effects are consistent with an MNF-associated reduction in EGFR expression and activity through it effect on glycolysis.

[7] = system: MCF-7 cells; conditions: by enhancing cytotoxicity of alkylating agents, cisplatin and melphalan; cited from earlier work

O=C(O)C(=O)CBr [3-bromopyruvate]
cellular survival [1]: lowers cellular survival

COc1ccc(C[C@@H](C)NC[C@H](O)c2cc(O)cc(O)c2)c2ccccc12 [MNF, (R,R′)-4′-methoxy-1-naphthylfenoterol]
proliferation [2]: significantly reduce proliferation
relative expression of 3-hydroxybutyrate [3]: increase
signal associated with carnitine [3]: significantly upregulated
signal associated with glycine [3]: significantly upregulated
signal associated with leucine [3]: significantly upregulated
signal associated with lysine [3]: significantly upregulated
signal associated with lactate ([3]; vs untreated cells): significantly reduced
reduction in the intracellular concentration of lactate [4]: ~50%
expression of BCRP [5]: significantly reduced
expression of MRP-1 [5]: significantly reduced
expression of P-gp [5]: significantly reduced
expression of BCRP [6]: reduced
expression of P-gp [6]: reduced

O=C(O)c1nn(Cc2ccc(Cl)cc2Cl)c2ccccc12 [lonidamine]
cellular survival [7]: lowers cellular survival
